From patent publication US11214803B2, “Modulators of YAP1 expression” (Ionis Pharmaceuticals, Inc., priority 2019, dated 2022)
Strand notation (5' to 3'): a small letter for the sugar, then the base; units joined by * are phosphorothioate-linked, units joined directly phosphodiester-linked; [ ] holds rarer units or linkages, { } end groups; capitals alone tell only the bases. k = constrained ethyl (cEt); [5mC] = 5-methylcytosine; d = 2'-deoxy (DNA)

System: Yap1 mRNA
Assay: Antisense inhibition of human Yap1 in A-431 cells by cEt gapmers, single dose (Example 3, RTS36584)
Format: cell-based
Summary of the method: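 A-431 cells were treated by free uptake with 2,000 nM modified oligonucleotide (3-10-3 cEt gapmers, full phosphorothioate, 5-methylcytosines) for about 48 hours. Yap1 mRNA was quantified by real-time RT-PCR, normalized to RiboGreen total RNA, and expressed as % of untreated control; asterisked values mark oligonucleotides targeting the amplicon region.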

[1] = Table 9, A-431 cells, 5,000 cells per well, free uptake, 2,000 nM, approximately 48 hours, RTS36584, normalized to RIBOGREEN, Yap1 mRNA relative to untreated control cells
[2] = Table 27, Yap1 mRNA by 3-10-3 cEt gapmers targeting SEQ ID NO.: 1, and 2, percent of untreated control
[3] = Table 11, A-431 cells, 5,000 cells per well, free uptake, 2,000 nM oligonucleotide, approx. 48 hours, primer probe set RTS36584, Yap1 mRNA normalized to RIBOGREEN, percent of untreated control
[4] = Table 28, Yap1 mRNA as percent of untreated control, 3-10-3 cEt gapmers targeting SEQ ID NO.: 1, and 2
[5] = Table 10, A-431 cells, 5,000 cells per well, free uptake, 2,000 nM oligonucleotide, approx. 48 hours, primer probe set RTS36584, Yap1 mRNA normalized to RIBOGREEN, percent of untreated control
[6] = Table 34, Yap1 mRNA as percent of untreated control, 3-10-3 cEt gapmers targeting SEQ ID NO: 1 and 2, single dose
[7] = Table 8, A-431 cells, 5,000 cells per well, free uptake, 2,000 nM, approximately 48 hours, RTS36584, normalized to RIBOGREEN, Yap1 mRNA relative to untreated control cells
[8] = Table 26, Yap1 mRNA by 3-10-3 cEt gapmers targeting SEQ ID NO.: 1, and 2, percent of untreated control
[9] = Table 12, A-431 cells, 5,000 cells per well, free uptake, 2,000 nM modified oligonucleotide, approx. 48 hours, RTS36584, normalized to RIBOGREEN, Yap1 mRNA relative to untreated control cells
[10] = Table 35, Yap1 mRNA as percent of untreated control, 3-10-3 cEt gapmers targeting SEQ ID NO: 1 and 2, single dose
[11] = Table 13, A-431 cells, 5,000 cells per well, free uptake, 2,000 nM modified oligonucleotide, approx. 48 hours, RTS36584, normalized to RIBOGREEN, Yap1 mRNA relative to untreated control cells

958576 (kG*kT*kG*dG*d[5mC]*dT*dA*d[5mC]*dT*dG*dG*d[5mC]*dA*kA*kA*kT; antisense) [Compound 958576]
YAP1 (% UTC) [1]: 53 % UTC

1075437 (antisense kT*kA*kT*dT*dA*dG*dT*dA*d[5mC]*dG*dA*dG*d[5mC]*kT*kA*k[5mC]) [compound 1075437]
YAP1 (% UTC) [2]: 85 % UTC

958743 (antisense kG*kA*k[5mC]*dT*dA*dT*dA*dA*dA*dG*dG*dG*dT*kT*kT*kA) [Compound 958743]
YAP1 (% UTC) [3]: 30 % UTC

1076206 (k[5mC]*kA*kA*dT*dA*dA*dA*d[5mC]*dT*dT*dA*d[5mC]*d[5mC]*k[5mC]*kT*kT; antisense) [compound 1076206]
YAP1 (% UTC) [4]: 55 % UTC

958611 (antisense kG*kA*kG*d[5mC]*dA*dT*dG*d[5mC]*dT*d[5mC]*dT*dT*dA*k[5mC]*kA*kT) [Compound 958611]
YAP1 (% UTC) [1]: 92 % UTC

1074734 (kT*kG*k[5mC]*d[5mC]*dA*dG*dG*dT*dA*dT*d[5mC]*dA*d[5mC]*kA*kG*kT; antisense) [compound 1074734]
YAP1 (% UTC) [4]: 51 % UTC

958687 (antisense kA*k[5mC]*kA*d[5mC]*dT*dA*dT*dG*dT*dG*dT*dT*d[5mC]*kT*kG*k[5mC]) [Compound 958687]
YAP1 (% UTC) [5]: 57 % UTC

1076564 (kT*kA*kA*dA*dG*dT*dA*dA*dT*dG*d[5mC]*dT*dA*k[5mC]*kA*kG; antisense) [compound 1076564]
YAP1 (% UTC) [6]: 77 % UTC

958380 (antisense k[5mC]*kG*k[5mC]*dG*d[5mC]*d[5mC]*d[5mC]*dG*d[5mC]*d[5mC]*d[5mC]*dG*d[5mC]*kA*k[5mC]*k[5mC]) [Compound 958380]
YAP1 (% UTC) [7]: 106 % UTC

1076500 (k[5mC]*kA*kA*dT*dT*dA*dA*dG*dA*dT*d[5mC]*dA*dA*k[5mC]*kA*kT; antisense) [compound 1076500]
YAP1 (% UTC) [6]: 99 % UTC

1076078 (k[5mC]*kT*kT*dT*dA*dG*d[5mC]*d[5mC]*dT*d[5mC]*dT*dA*dT*kA*k[5mC]*k[5mC]; antisense) [compound 1076078]
YAP1 (% UTC) [4]: 23 % UTC

958677 (kA*kG*kA*dA*d[5mC]*dT*dT*dA*dG*dT*dT*d[5mC]*d[5mC]*k[5mC]*kT*kA; antisense) [Compound 958677]
YAP1 (% UTC) [5]: 51 % UTC

958578 (k[5mC]*kT*kT*dA*dA*dT*d[5mC]*dT*dG*dT*dG*dG*d[5mC]*kT*kA*k[5mC]; antisense) [Compound 958578]
YAP1 (% UTC) [3]: 4 % UTC

1074285 (antisense kG*k[5mC]*kA*dA*dA*dA*d[5mC]*dG*dA*dG*dG*dG*dT*k[5mC]*kA*kA) [compound 1074285]
YAP1 (% UTC) [2]: 17 % UTC

958483 (antisense kG*kA*kG*dG*dA*dT*dT*dA*dA*dA*dG*dT*dA*kT*k[5mC]*kT) [Compound 958483]
YAP1 (% UTC) [3]: 17 % UTC

958516 (k[5mC]*kT*kG*d[5mC]*dA*dG*dA*d[5mC]*dT*dG*d[5mC]*d[5mC]*d[5mC]*k[5mC]*kA*kA; antisense) [Compound 958516]
YAP1 (% UTC) [1]: 38 % UTC

1074252 (antisense kG*kG*kA*d[5mC]*dA*dG*d[5mC]*dA*dT*dG*dG*d[5mC]*d[5mC]*kT*kT*k[5mC]) [compound 1074252]
YAP1 (% UTC) [8]: 50 % UTC

958498 (kG*kA*kG*dT*dA*dT*dG*dT*dG*dG*d[5mC]*dA*dA*kT*kA*kA; antisense) [Compound 958498]
YAP1 (% UTC) [3]: 1 % UTC

958799 (antisense kA*kT*kT*dA*d[5mC]*dT*d[5mC]*dA*dA*dT*d[5mC]*dA*dT*kG*kG*kT) [Compound 958799]
YAP1 (% UTC) [9]: 2 % UTC

958412 (antisense kA*k[5mC]*k[5mC]*dT*dT*dT*dA*d[5mC]*d[5mC]*dA*dA*dA*dA*k[5mC]*kG*kA) [Compound 958412]
YAP1 (% UTC) [7]: 49 % UTC

958351 (kT*k[5mC]*kT*d[5mC]*d[5mC]*dG*dA*dG*dT*d[5mC]*d[5mC]*d[5mC]*d[5mC]*kG*k[5mC]*kG; antisense) [Compound 958351]
YAP1 (% UTC) [7]: 67 % UTC

1074773 (k[5mC]*kA*kG*dT*dT*dA*dA*dA*dA*dT*d[5mC]*dT*dT*kA*kT*k[5mC]; antisense) [compound 1074773]
YAP1 (% UTC) [10]: 94 % UTC

958575 (kG*kG*k[5mC]*dT*dA*d[5mC]*dT*dG*dG*d[5mC]*dA*dA*dA*kT*kT*kA; antisense) [Compound 958575]
YAP1 (% UTC) [11]: 9 % UTC

958698 (antisense k[5mC]*kT*kT*dA*dT*dT*dA*dG*d[5mC]*d[5mC]*d[5mC]*dT*d[5mC]*kA*kA*kA) [Compound 958698]
YAP1 (% UTC) [3]: 30 % UTC

1075156 (kA*kT*kT*dA*dT*dA*dT*dG*dA*d[5mC]*dT*d[5mC]*dT*kG*k[5mC]*kT; antisense) [compound 1075156]
YAP1 (% UTC) [6]: 22 % UTC

1076405 (antisense kT*kT*kA*dT*dT*dT*dA*dA*dG*dA*d[5mC]*d[5mC]*dT*kG*kG*kT) [compound 1076405]
YAP1 (% UTC) [10]: 12 % UTC

1075948 (antisense kG*kG*kA*d[5mC]*dT*dA*dA*dA*dG*dA*dA*dT*dA*k[5mC]*kA*kG) [compound 1075948]
YAP1 (% UTC) [8]: 31 % UTC

1076141 (kT*kA*k[5mC]*dG*dA*dA*dA*dA*dA*dA*dG*d[5mC]*d[5mC]*kA*kA*k[5mC]; antisense) [compound 1076141]
YAP1 (% UTC) [2]: 29 % UTC

958804 (antisense kA*kG*kA*dT*dA*dA*dT*d[5mC]*dA*dT*d[5mC]*d[5mC]*dT*k[5mC]*kA*kG) [Compound 958804]
YAP1 (% UTC) [9]: 17 % UTC

1075372 (antisense kA*kT*kA*dT*dA*dT*dA*dG*dA*d[5mC]*dT*dT*dG*kA*kG*kA) [compound 1075372]
YAP1 (% UTC) [8]: 27 % UTC

1076111 (kA*kA*kT*dT*dA*dG*dT*dT*dA*dG*dG*dA*dT*kA*kT*k[5mC]; antisense) [compound 1076111]
YAP1 (% UTC) (Table 29, Yap1 mRNA as percent of untreated control, 3-10-3 cEt gapmers targeting SEQ ID NO.: 1, and 2): 67 % UTC

1076213 (kT*k[5mC]*kT*d[5mC]*dA*dA*dG*dG*dA*dA*dT*dT*dG*k[5mC]*k[5mC]*kT; antisense) [compound 1076213]
YAP1 (% UTC) [10]: 27 % UTC

958770 (antisense kA*k[5mC]*kA*dG*dA*dG*d[5mC]*dG*dG*dT*dG*d[5mC]*dA*k[5mC]*k[5mC]*k[5mC]) [Compound 958770]
YAP1 (% UTC) [11]: 64 % UTC

1076437 (kG*kA*kA*dG*dA*dA*dT*dA*dG*d[5mC]*dA*dT*d[5mC]*kT*kG*kA; antisense) [compound 1076437]
YAP1 (% UTC) [10]: 19 % UTC

1074190 (antisense k[5mC]*kG*kG*d[5mC]*dG*dG*dG*d[5mC]*d[5mC]*d[5mC]*dT*dG*d[5mC]*k[5mC]*k[5mC]*k[5mC]) [compound 1074190]
YAP1 (% UTC) [4]: 114 % UTC

1074989 (antisense kG*kA*kG*dG*dG*dA*dA*dA*dG*d[5mC]*dA*d[5mC]*dG*k[5mC]*k[5mC]*k[5mC]) [compound 1074989]
YAP1 (% UTC) [2]: 105 % UTC

1074228 (antisense kG*kA*k[5mC]*dT*dG*dT*d[5mC]*dG*dA*dA*dG*dA*dT*kG*k[5mC]*kT) [compound 1074228]
YAP1 (% UTC) [6]: 17 % UTC

958774 (antisense kT*kG*k[5mC]*dT*dA*dG*dA*dT*dA*dT*d[5mC]*dG*d[5mC]*k[5mC]*kA*kA) [Compound 958774]
YAP1 (% UTC) [9]: 33 % UTC

1075949 (antisense kT*kA*kG*dG*dA*dA*d[5mC]*dA*d[5mC]*d[5mC]*dA*dA*dG*kG*kT*kT) [compound 1075949]
YAP1 (% UTC) [2]: 48 % UTC

1075406 (antisense kA*k[5mC]*kT*dA*dT*dA*dT*dA*dA*d[5mC]*d[5mC]*dT*dG*kA*kA*k[5mC]) [compound 1075406]
YAP1 (% UTC) [4]: 99 % UTC

1074805 (kG*kT*kA*dG*d[5mC]*dA*dA*dA*dG*dT*d[5mC]*dA*d[5mC]*kT*kT*k[5mC]; antisense) [compound 1074805]
YAP1 (% UTC) [10]: 9 % UTC

1075860 (antisense kA*kA*k[5mC]*dT*dA*dT*dA*dA*dG*d[5mC]*dT*dA*dT*kG*kT*kG) [compound 1075860]
YAP1 (% UTC) [6]: 73 % UTC

958382 (antisense kT*kT*k[5mC]*d[5mC]*dT*d[5mC]*dT*dG*d[5mC]*dG*d[5mC]*dG*d[5mC]*k[5mC]*k[5mC]*kG) [Compound 958382]
YAP1 (% UTC) [7]: 111 % UTC

958635 (antisense kG*kT*kT*dT*dA*dG*dG*d[5mC]*dA*dA*dG*d[5mC]*dA*kG*k[5mC]*kT) [Compound 958635]
YAP1 (% UTC) [11]: 43 % UTC

958740 (antisense k[5mC]*kG*kG*d[5mC]*dA*d[5mC]*d[5mC]*dA*dA*dA*d[5mC]*dA*d[5mC]*k[5mC]*k[5mC]*kA) [Compound 958740]
YAP1 (% UTC) [11]: 57 % UTC

958797 (antisense kA*k[5mC]*kG*dA*dG*d[5mC]*dA*d[5mC]*dA*dG*d[5mC]*dA*d[5mC]*k[5mC]*k[5mC]*kT) [Compound 958797]
YAP1 (% UTC) [5]: 13 % UTC
